This passage reports fold change results from PubChem BioAssay AID504481 (NMMLSC, 2011).

Among the test systems are YBR084C-A; YNL142W; YKL103C; BY4741; YCR005C; YCL025C.
Holding throughout (experiment): GFP reporter expression in transducer deletion yeast, mechanism study for yeast TOR pathway modulator project, S. cerevisiae, transducer mutant strains, GFP-tagged proteins (AID 504481);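 also: 1 = DMSO wells as ratio of mean channel GFP fluorescence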
Conditions in all cases: S. cerevisiae transducer mutants, GFP-fusion expression, flow cytometry, 3 h
For orientation: Flow cytometry measures light scatter and fluorescence of single cells or particles in a stream.

Active and inactive are the calls of the source.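 The calls were made as follows: active = fold change below 0.65 in a panel strain, matching the primary screen cutoff; inactive = the rest.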

As for `O=C(Oc1c(Cl)cc(Cl)c2cccnc12)c1cccc([N+](=O)[O-])c1`, the fold change was 1.18 (inactive) with YBR084C-A; 1.08 (inactive) with YNL142W; 1.56 in the test on YKL103C; 0.946 (inactive) in the test with BY4741; 1.03 (inactive) with YCR005C; 1.16 (inactive) in the test on YCL025C.
